Experimental findings from publication PMC4979471 (Cell Death Discovery, 2015) are described below.

Where two headings read alike, the source gives them in different places.

Assay in all cases: Kinase selectivity, P33-radiolabeled assay
Holding throughout (type): biochemical
What all share (settings): 10 μM ATP

One test deals with T1, CDK1/cyclin A (Homo sapiens, UniProt P06493).
T1 construct: purchased Reaction Biology Corp
The method in brief:
(§1)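 Each enzyme was exposed to 10 μM compound, with duplicate measurements, in reactions containing 10 μM ATP. Numbers are remaining activity as a percent of the vehicle (DMSO) signal.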

For the next test, the target named is T2, STK25/YSK1 (Homo sapiens, UniProt O00506).
T2 construct: purchased Reaction Biology Corp
The gist of the method: as §1

The next test deals with T3, EPHB4 (Homo sapiens, UniProt P54760).
T3 construct: purchased Reaction Biology Corp
T3 sequence (P54760 16-987): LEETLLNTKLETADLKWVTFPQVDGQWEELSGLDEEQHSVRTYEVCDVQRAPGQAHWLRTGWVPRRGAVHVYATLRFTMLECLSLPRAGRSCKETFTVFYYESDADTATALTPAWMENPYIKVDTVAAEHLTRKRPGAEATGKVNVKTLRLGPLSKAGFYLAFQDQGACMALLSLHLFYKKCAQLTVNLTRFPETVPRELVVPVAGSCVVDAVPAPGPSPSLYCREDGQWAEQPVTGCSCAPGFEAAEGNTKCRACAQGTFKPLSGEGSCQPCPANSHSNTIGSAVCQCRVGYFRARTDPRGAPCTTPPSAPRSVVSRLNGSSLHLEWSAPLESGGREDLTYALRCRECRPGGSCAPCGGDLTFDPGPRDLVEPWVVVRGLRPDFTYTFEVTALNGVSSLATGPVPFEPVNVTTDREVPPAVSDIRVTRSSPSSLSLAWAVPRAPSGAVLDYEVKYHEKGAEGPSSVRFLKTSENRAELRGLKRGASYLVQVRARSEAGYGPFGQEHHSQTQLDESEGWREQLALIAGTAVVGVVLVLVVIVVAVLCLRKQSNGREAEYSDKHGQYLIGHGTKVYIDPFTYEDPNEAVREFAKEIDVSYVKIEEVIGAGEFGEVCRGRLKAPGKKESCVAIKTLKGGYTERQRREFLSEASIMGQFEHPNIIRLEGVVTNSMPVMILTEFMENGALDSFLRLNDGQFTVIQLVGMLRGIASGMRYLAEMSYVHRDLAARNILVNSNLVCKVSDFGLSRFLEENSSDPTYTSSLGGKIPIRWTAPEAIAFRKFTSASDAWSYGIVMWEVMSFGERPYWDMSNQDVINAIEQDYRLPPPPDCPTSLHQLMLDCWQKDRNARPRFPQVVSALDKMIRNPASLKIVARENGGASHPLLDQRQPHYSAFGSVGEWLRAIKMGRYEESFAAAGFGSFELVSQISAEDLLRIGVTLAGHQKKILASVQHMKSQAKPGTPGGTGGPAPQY
The gist of the method: as §1

For a further test, the target named is T4, CTK/MATK (Homo sapiens, UniProt P42679).
T4 construct: purchased Reaction Biology Corp
T4 sequence (P42679 1-507): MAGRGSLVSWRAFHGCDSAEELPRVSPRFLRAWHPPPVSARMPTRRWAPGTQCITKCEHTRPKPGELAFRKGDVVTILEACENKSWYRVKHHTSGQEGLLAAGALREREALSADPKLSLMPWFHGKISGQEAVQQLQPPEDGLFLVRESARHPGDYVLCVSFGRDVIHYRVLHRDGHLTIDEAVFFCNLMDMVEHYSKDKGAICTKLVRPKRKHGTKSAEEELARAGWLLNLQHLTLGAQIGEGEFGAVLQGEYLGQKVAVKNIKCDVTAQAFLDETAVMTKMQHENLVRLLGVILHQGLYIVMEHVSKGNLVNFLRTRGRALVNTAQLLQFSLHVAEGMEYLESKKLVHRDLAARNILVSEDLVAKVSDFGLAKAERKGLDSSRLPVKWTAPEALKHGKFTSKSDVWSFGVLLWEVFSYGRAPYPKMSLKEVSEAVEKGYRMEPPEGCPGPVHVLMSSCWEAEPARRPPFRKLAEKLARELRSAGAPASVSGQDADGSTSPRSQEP
The gist of the method: as §1

Another test has as its target T5, EPHB3 (Homo sapiens, UniProt P54753).
T5 construct: purchased Reaction Biology Corp
T5 sequence (P54753 34-998): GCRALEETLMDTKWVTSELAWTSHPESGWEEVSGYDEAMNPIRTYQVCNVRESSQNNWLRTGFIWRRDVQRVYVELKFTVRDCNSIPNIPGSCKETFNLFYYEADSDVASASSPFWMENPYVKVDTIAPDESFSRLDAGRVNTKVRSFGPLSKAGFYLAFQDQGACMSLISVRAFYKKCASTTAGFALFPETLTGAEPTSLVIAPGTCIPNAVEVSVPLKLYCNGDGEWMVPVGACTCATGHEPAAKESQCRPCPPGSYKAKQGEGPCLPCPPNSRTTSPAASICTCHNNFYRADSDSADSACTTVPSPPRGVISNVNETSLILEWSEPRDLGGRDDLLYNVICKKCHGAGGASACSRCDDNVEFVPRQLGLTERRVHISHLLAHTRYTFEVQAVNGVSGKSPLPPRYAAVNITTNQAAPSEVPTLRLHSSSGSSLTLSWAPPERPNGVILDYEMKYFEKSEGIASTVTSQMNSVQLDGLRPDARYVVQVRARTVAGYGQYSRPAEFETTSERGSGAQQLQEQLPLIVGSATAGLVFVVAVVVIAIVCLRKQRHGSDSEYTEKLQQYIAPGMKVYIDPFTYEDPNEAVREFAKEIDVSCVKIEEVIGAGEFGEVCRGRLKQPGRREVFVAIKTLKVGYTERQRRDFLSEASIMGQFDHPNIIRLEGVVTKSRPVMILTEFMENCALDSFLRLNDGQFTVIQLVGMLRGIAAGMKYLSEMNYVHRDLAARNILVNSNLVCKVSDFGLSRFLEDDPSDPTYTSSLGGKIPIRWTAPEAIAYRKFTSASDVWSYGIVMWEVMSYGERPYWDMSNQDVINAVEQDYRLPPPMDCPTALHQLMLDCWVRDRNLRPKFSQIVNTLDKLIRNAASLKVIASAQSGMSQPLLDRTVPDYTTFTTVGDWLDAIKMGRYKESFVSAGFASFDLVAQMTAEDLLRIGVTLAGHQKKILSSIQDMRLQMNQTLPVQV
The gist of the method:
as §1

The target of the next test is T6, PLK2 (Homo sapiens, UniProt Q9NYY3).
T6 construct: purchased Reaction Biology Corp
The gist of the method:
as §1

The target in the next test is T7, CDK3/cyclin E (Homo sapiens, UniProt Q00526).
T7 construct: purchased Reaction Biology Corp
The gist of the method: as §1

[1] abbreviates: read-out: % Enzyme Activity (relative to DMSO controls) AVG.
Where [2] appears, read: read-out: % Enzyme Activity (relative to DMSO controls) Data 1.
The mark [3] stands for this setting: read-out: % Enzyme Activity (relative to DMSO controls) Data 2.

T2 sequence (O00506 whole entry): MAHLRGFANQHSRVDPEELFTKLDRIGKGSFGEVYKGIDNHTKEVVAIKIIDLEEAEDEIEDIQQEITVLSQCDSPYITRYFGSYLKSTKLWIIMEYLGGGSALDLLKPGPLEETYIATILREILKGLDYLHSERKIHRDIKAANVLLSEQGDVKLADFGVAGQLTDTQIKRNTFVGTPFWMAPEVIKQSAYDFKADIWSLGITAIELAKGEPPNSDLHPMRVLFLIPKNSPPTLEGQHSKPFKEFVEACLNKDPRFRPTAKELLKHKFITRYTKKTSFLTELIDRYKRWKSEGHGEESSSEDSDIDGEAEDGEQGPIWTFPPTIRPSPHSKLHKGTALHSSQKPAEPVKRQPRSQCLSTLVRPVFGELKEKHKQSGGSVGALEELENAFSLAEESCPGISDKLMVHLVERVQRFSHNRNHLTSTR
T7 sequence (Q00526 whole entry): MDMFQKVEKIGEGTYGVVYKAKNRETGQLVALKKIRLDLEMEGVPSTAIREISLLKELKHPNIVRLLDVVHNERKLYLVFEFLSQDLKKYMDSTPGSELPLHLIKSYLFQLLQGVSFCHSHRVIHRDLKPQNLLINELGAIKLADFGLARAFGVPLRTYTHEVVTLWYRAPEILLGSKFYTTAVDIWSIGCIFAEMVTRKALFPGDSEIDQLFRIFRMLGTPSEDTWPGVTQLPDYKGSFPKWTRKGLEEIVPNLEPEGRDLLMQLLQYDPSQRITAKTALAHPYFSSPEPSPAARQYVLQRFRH
T7 sequence (P24864 whole entry partner): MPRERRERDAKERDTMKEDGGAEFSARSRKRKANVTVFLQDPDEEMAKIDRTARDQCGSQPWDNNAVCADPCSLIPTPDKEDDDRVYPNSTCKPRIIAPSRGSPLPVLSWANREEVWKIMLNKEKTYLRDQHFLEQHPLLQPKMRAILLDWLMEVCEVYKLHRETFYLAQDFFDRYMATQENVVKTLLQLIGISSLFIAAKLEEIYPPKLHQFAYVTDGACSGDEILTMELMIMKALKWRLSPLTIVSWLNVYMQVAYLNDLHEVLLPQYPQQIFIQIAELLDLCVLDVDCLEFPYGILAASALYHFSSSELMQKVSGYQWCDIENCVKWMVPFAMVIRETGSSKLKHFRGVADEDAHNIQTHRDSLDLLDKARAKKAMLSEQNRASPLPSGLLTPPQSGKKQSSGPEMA
T6 sequence (Q9NYY3 whole entry): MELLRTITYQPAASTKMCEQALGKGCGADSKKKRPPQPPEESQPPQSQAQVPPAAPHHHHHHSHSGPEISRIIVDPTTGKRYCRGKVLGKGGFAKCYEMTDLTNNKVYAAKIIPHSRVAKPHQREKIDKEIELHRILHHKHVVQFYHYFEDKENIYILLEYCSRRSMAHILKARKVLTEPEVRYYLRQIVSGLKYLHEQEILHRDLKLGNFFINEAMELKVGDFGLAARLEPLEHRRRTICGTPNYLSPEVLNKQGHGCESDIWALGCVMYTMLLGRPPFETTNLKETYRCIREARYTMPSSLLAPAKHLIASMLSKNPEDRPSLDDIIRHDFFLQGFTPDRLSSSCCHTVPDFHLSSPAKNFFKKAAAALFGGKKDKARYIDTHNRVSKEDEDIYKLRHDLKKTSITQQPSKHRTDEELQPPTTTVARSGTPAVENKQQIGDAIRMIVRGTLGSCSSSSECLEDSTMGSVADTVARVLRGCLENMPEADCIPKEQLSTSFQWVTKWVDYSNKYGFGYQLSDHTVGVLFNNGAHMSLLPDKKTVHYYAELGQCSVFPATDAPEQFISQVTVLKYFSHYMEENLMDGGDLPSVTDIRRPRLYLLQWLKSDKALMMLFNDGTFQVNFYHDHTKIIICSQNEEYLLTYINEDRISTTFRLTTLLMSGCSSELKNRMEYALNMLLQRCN
T1 sequence (P06493 whole entry): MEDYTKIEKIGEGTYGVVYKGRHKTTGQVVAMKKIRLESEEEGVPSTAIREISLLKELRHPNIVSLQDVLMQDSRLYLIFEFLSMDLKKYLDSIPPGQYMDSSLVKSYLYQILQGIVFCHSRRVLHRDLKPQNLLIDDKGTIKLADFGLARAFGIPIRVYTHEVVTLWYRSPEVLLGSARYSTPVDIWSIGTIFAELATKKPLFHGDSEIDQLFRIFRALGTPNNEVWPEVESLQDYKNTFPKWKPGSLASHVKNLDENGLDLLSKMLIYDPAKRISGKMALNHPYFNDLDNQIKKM
T1 sequence (P20248 whole entry partner): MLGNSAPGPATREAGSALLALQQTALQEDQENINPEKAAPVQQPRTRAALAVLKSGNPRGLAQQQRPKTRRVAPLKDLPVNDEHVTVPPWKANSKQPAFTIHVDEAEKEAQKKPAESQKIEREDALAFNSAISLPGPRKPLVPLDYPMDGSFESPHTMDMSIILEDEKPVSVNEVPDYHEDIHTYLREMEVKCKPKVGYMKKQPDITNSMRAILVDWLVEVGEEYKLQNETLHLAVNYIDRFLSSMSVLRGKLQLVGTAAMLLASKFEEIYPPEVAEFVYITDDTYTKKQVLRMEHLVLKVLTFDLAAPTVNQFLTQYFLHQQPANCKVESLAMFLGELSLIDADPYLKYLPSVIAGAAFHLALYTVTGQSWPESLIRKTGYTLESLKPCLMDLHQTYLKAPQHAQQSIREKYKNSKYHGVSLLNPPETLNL

For the molecule `CC(C)(C)C(=O)N1N=CC[C@H]1c1ccccc1` [GSK′963], the remaining activity at 10 µM was 105% at CDK1/cyclin A (setting [1]); 107% on CDK1/cyclin A (setting [2]); 102% on CDK1/cyclin A (setting [3]); 96.1% at STK25/YSK1 (setting [1]); 96.7% on STK25/YSK1 (setting [2]); 95.4% at STK25/YSK1 (setting [3]). Also, the remaining activity at 10 µM was 101% at EPHB4 (setting [1]); 100% at EPHB4 (setting [2]); 101% on EPHB4 (setting [3]); 93% on CTK/MATK (setting [1]); 91.5% on CTK/MATK (setting [2]); 94.5% at CTK/MATK (setting [3]). Besides, the remaining activity at 10 µM at EPHB3 (setting [1]) came to 105%; on EPHB3 (setting [2]), 103%; on EPHB3 (setting [3]), 107%; on PLK2 (setting [1]), 110%; on PLK2 (setting [2]), 108%; at PLK2 (setting [3]), 111%. Moreover, the remaining activity at 10 µM on CDK3/cyclin E (setting [1]) was found to be 106%; at CDK3/cyclin E (setting [2]), 105%; at CDK3/cyclin E (setting [3]), 107%.
